Values of other authors as cited in article PMC4138512 (Journal of computer-aided molecular design, 2014).

Test system: BoNT/A

Structure (SMILES) | Inhibition in combination with 2,4-dichlorocinnamic hydroxamate | Type of inhibition of BoNT/A | Inhibition in combination with 2,4-dichlorocinnamic hydroxamate and chicoric acid
O=C(/C=C/c1ccc(O)c(O)c1)O[C@H](C(=O)O)[C@H](OC(=O)/C=C/c1ccc(O)c(O)c1)C(=O)O [D-chicoric acid] | nonmutually exclusive inhibition | partial inhibition | 
COC(=O)c1ccc(O)c2nc3c(C=O)c(O)cc(O)c3nc12 [lomofungin] |  | non-competitive | synergistic inhibition
